How the values were obtained:
[1] = system: Human immunodeficiency virus 1; assay: Antiviral activity against […] HIV-1 infected in human MT4 cells assessed as reduction in virus-induced cytopathic effect incubated for 5 days by MTT assay; type: functional, organism-based; settings: Human immunodeficiency virus 1, MT4, 120 h
[2] = Cytotoxicity against human MT4 cells assessed as cell growth inhibition incubated for 5 days by MTT assay; type: toxicity, cell-based; settings: time 5 day
[3] = Selectivity index, ratio of CC50 for human MT4 cells to EC50 for antiviral activity against NNRTI resistant HIV-1 infected in human MT4 cells; type: toxicity, cell-based; settings: read-out: Ratio CC50/EC50
[4] = system: Human immunodeficiency virus 1; assay: Antiviral activity against drug-resistant HIV-1 L100I mutant infected in human MT4 cells assessed as reduction in virus-induced cytopathic effect incubated for 5 days by MTT assay; type: functional, organism-based; settings: Human immunodeficiency virus 1, L100I mutant, MT4, 120 h
[5] = system: Human immunodeficiency virus 1; assay: Antiviral activity against drug-resistant HIV-1 K103 N mutant infected in human MT4 cells assessed as reduction in virus-induced cytopathic effect incubated for 5 days by MTT assay; type: functional, organism-based; settings: Human immunodeficiency virus 1, K103 N mutant, MT4, 120 h
[6] = system: Human immunodeficiency virus 1; assay: Antiviral activity against drug-resistant HIV-1 Y181C mutant infected in human MT4 cells assessed as reduction in virus-induced cytopathic effect incubated for 5 days by MTT assay; type: functional, organism-based; settings: Human immunodeficiency virus 1, Y181C mutant, MT4, 120 h
[7] = system: Human immunodeficiency virus 1; assay: Antiviral activity against drug-resistant HIV-1 Y188L mutant infected in human MT4 cells assessed as reduction in virus-induced cytopathic effect incubated for 5 days by MTT assay; type: functional, organism-based; settings: Human immunodeficiency virus 1, Y188L mutant, MT4, 120 h
[8] = system: Human immunodeficiency virus 1; assay: Antiviral activity against drug-resistant HIV-1 E138K mutant infected in human MT4 cells assessed as reduction in virus-induced cytopathic effect incubated for 5 days by MTT assay; type: functional, organism-based; settings: Human immunodeficiency virus 1, E138K mutant, MT4, 120 h
[9] = molecular target: Human immunodeficiency virus type 1 reverse transcriptase (Human immunodeficiency virus 1, UniProt Q72547); assay: Inhibition of recombinant wild-type p66/p51 HIV-1 reverse transcriptase incubated for 40 mins by picogreen dye-based spectrofluorometric analysis
[10] = Fold resistance, ratio of EC50 for antiviral activity against drug-resistant HIV-1 L100I mutant infected in human MT4 cells to EC50 for antiviral activity against […] HIV-1 infected in human MT4 cells; type: functional
[11] = Fold resistance, ratio of EC50 for antiviral activity against drug-resistant HIV-1 K103 N mutant infected in human MT4 cells to EC50 for antiviral activity against […] HIV-1 infected in human MT4 cells; type: functional
[12] = Fold resistance, ratio of EC50 for antiviral activity against drug-resistant HIV-1 Y181C mutant infected in human MT4 cells to EC50 for antiviral activity against […] HIV-1 infected in human MT4 cells; type: functional
[13] = Fold resistance, ratio of EC50 for antiviral activity against drug-resistant HIV-1 Y188L mutant infected in human MT4 cells to EC50 for antiviral activity against […] HIV-1 infected in human MT4 cells; type: functional
[14] = Fold resistance, ratio of EC50 for antiviral activity against drug-resistant HIV-1 E138K mutant infected in human MT4 cells to EC50 for antiviral activity against […] HIV-1 infected in human MT4 cells; type: functional

Cc1cccc(C)c1C(C#N)c1nc(SC(C)C)[nH]c(=O)c1C (configuration not stated)
EC50 [1]: 930 nM | CC50 at 120 h [2]: 68.1 µM | selectivity ratio [3]: 73 | EC50 [4]: > 68.1 µM | EC50 [5]: > 68.1 µM | EC50 [6]: > 68.1 µM | EC50 [7]: > 68.1 µM | EC50 [8]: 3480 nM | IC50 [9]: 6590 nM | Ratio EC50 [10]: >73 | Ratio EC50 [11]: >73 | Ratio EC50 [12]: >73 | Ratio EC50 [13]: >73 | Ratio EC50 [14]: 4

COc1cc(OC)cc(C(C#N)c2nc(SC(C)C)[nH]c(=O)c2C)c1 (configuration not stated)
EC50 [1]: 670 nM | CC50 at 120 h [2]: 41.1 µM | selectivity ratio [3]: 61 | EC50 [4]: 3.36 µM | EC50 [5]: > 41.1 µM | EC50 [6]: > 41.1 µM | EC50 [7]: > 41.1 µM | EC50 [8]: 2540 nM | IC50 [9]: 2580 nM | Ratio EC50 [10]: 5 | Ratio EC50 [11]: >61 | Ratio EC50 [12]: >61 | Ratio EC50 [13]: >61 | Ratio EC50 [14]: 4

Cc1c(C(C#N)c2cccnc2)nc(SC(C)C)[nH]c1=O (configuration not stated)
EC50 [1]: 26200 nM | CC50 at 120 h [2]: 363 µM | selectivity ratio [3]: 14 | EC50 [4]: 47.9 µM | EC50 [5]: > 363 µM | EC50 [6]: > 363 µM | EC50 [7]: > 363 µM | EC50 [8]: 54100 nM | IC50 [9]: 318000 nM | Ratio EC50 [10]: 2 | Ratio EC50 [11]: >14 | Ratio EC50 [12]: >14 | Ratio EC50 [13]: >14 | Ratio EC50 [14]: 2

Cc1c(C(C#N)c2ccc(F)c(C#N)c2)nc(SC(C)C)[nH]c1=O (configuration not stated)
EC50 [1]: 21400 nM | CC50 at 120 h [2]: 164 µM | selectivity ratio [3]: 8 | EC50 [4]: 57 µM | EC50 [5]: > 164 µM | EC50 [6]: > 164 µM | EC50 [7]: > 164 µM | EC50 [8]: 41900 nM | IC50 [9]: 83800 nM | Ratio EC50 [10]: 3 | Ratio EC50 [11]: >8 | Ratio EC50 [12]: >8 | Ratio EC50 [13]: >8 | Ratio EC50 [14]: 2

Cc1c(C(C#N)c2c(F)cccc2Cl)nc(SC(C)C)[nH]c1=O (configuration not stated)
EC50 [1]: 18.4 nM | CC50 at 120 h [2]: 74.7 µM | selectivity ratio [3]: 4050 | EC50 [4]: 1.06 µM | EC50 [5]: 3.3 µM | EC50 [6]: 1.4 µM | EC50 [7]: > 58.7 µM | EC50 [8]: 90 nM | IC50 [9]: 74 nM | Ratio EC50 [10]: 58 | Ratio EC50 [11]: 179 | Ratio EC50 [12]: 76 | Ratio EC50 [13]: 3191 | Ratio EC50 [14]: 5

COc1cc(F)cc(C(C#N)c2nc(SC(C)C)[nH]c(=O)c2C)c1 (configuration not stated)
EC50 [1]: 123 nM | CC50 at 120 h [2]: 161 µM | selectivity ratio [3]: 1310 | EC50 [4]: 3.94 µM | EC50 [5]: 23.1 µM | EC50 [6]: 5.23 µM | EC50 [7]: 54.4 µM | EC50 [8]: 350 nM | IC50 [9]: 236 nM | Ratio EC50 [10]: 32 | Ratio EC50 [11]: 188 | Ratio EC50 [12]: 43 | Ratio EC50 [13]: 442 | Ratio EC50 [14]: 3

Cc1c(C(C#N)c2cccnc2Cl)nc(SC(C)C)[nH]c1=O (configuration not stated)
EC50 [1]: 1140 nM | CC50 at 120 h [2]: 251 µM | selectivity ratio [3]: 221 | EC50 [4]: 23.8 µM | EC50 [5]: 53.6 µM | EC50 [6]: > 60.9 µM | EC50 [7]: > 251 µM | EC50 [8]: 1560 nM | IC50 [9]: 13100 nM | Ratio EC50 [10]: 21 | Ratio EC50 [11]: 47 | Ratio EC50 [12]: >53 | Ratio EC50 [13]: >221 | Ratio EC50 [14]: 1

Cc1c(C(C#N)c2cc(Cl)cc(Cl)c2)nc(SC(C)C)[nH]c1=O (configuration not stated)
EC50 [1]: 660 nM | CC50 at 120 h [2]: 28.9 µM | selectivity ratio [3]: 44 | EC50 [4]: > 13.2 µM | EC50 [5]: > 28.9 µM | EC50 [6]: 11.4 µM | EC50 [7]: > 28.9 µM | EC50 [8]: 4220 nM | IC50 [9]: 479 nM | Ratio EC50 [10]: >20 | Ratio EC50 [11]: >44 | Ratio EC50 [12]: 17 | Ratio EC50 [13]: >44 | Ratio EC50 [14]: 6

Cc1c(C(C#N)c2ccccn2)nc(SC(C)C)[nH]c1=O (configuration not stated)
EC50 [1]: 1470 nM | CC50 at 120 h [2]: 304 µM | selectivity ratio [3]: 207 | EC50 [4]: 45.9 µM | EC50 [5]: > 304 µM | EC50 [6]: 51.2 µM | EC50 [7]: > 304 µM | EC50 [8]: 3800 nM | IC50 [9]: 9400 nM | Ratio EC50 [10]: 31 | Ratio EC50 [11]: >207 | Ratio EC50 [12]: 35 | Ratio EC50 [13]: >207 | Ratio EC50 [14]: 3

Cc1c(C(C#N)c2cc(Cl)cc(C(F)(F)F)c2)nc(SC(C)C)[nH]c1=O (configuration not stated)
EC50 [1]: 4170 nM | CC50 at 120 h [2]: 23.1 µM | selectivity ratio [3]: 6 | EC50 [4]: > 23.1 µM | EC50 [5]: > 23.1 µM | EC50 [6]: > 23.1 µM | EC50 [7]: > 23.1 µM | EC50 [8]: 10900 nM | IC50 [9]: 3520 nM | Ratio EC50 [10]: >6 | Ratio EC50 [11]: >6 | Ratio EC50 [12]: >6 | Ratio EC50 [13]: >6 | Ratio EC50 [14]: 3

Cc1c(C(C#N)c2c(Cl)cccc2Cl)nc(SC(C)C)[nH]c1=O (configuration not stated)
EC50 [1]: 83 nM | CC50 at 120 h [2]: 62.2 µM | selectivity ratio [3]: 749 | EC50 [4]: 3.38 µM | EC50 [5]: 6.13 µM | EC50 [6]: 3.99 µM | EC50 [7]: > 62.2 µM | EC50 [8]: 220 nM | IC50 [9]: 466 nM | Ratio EC50 [10]: 41 | Ratio EC50 [11]: >74 | Ratio EC50 [12]: 48 | Ratio EC50 [13]: >750 | Ratio EC50 [14]: 3

Cc1cc(C)cc(C(C#N)c2nc(SC(C)C)[nH]c(=O)c2C)c1 (configuration not stated)
EC50 [1]: 79 nM | CC50 at 120 h [2]: 220 µM | selectivity ratio [3]: 2770 | EC50 [4]: 2.29 µM | EC50 [5]: 9.05 µM | EC50 [6]: 4.11 µM | EC50 [7]: 55.5 µM | EC50 [8]: 450 nM | IC50 [9]: 226 nM | Ratio EC50 [10]: 29 | Ratio EC50 [11]: 115 | Ratio EC50 [12]: 52 | Ratio EC50 [13]: 702 | Ratio EC50 [14]: 6

Cc1c(C(C#N)c2cc(F)cc(Cl)c2)nc(SC(C)C)[nH]c1=O (configuration not stated)
EC50 [1]: 380 nM | CC50 at 120 h [2]: 139 µM | selectivity ratio [3]: 363 | EC50 [4]: 19.1 µM | EC50 [5]: 47.2 µM | EC50 [6]: 12.5 µM | EC50 [7]: > 139 µM | EC50 [8]: 1990 nM | IC50 [9]: 716 nM | Ratio EC50 [10]: 50 | Ratio EC50 [11]: 124 | Ratio EC50 [12]: 33 | Ratio EC50 [13]: >365 | Ratio EC50 [14]: 5

From ChEMBL document CHEMBL5137044, “Expansion of the S-CN-DABO scaffold to exploit the impact on inhibitory activities against the non-nucleoside HIV-1 reverse transcriptase” (Eur J Med Chem, 2022)
